Experimental data: patent US6808873B2, “Screening assays using intramitochondrial calcium” (MitoKor, Inc., priority 2000, dated 2004)

Tests used:
Ca^2+ uniporter [1] = molecular target: T1, Ca^2+ uniporter (Homo sapiens, UniProt Q8NE86); assay: High-throughput uniporter assay of different compounds, permeabilized HepG2 cells with and without thapsigargin, FLIPR II; assay type: cell-based
T1 construct: The effects of several intracellular Ca^2+ modulating agents (ICMAs) on permeabilized HepG2 cells were examined; endogenous in cells; host or cells: HepG2 (ATCC HB-8065), digitonin-permeabilized, in suspension
T1 sequence (Q8NE86 51-351): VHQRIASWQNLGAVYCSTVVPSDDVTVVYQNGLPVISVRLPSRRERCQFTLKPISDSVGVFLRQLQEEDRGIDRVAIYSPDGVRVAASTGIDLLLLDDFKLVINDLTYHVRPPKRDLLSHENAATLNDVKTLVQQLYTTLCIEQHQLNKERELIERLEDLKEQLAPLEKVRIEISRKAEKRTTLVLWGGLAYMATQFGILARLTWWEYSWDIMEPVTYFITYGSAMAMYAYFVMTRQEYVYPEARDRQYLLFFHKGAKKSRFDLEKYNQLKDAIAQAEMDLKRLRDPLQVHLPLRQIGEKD
T1 sequence (Q9H4I9 48-107 partner limits assumed): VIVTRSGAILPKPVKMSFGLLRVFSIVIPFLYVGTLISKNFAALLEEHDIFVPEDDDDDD
Source text: The high-throughput uniporter assay protocol, carried out as described above for suspension cells, was used to determine the effect of different compounds on mitochondria and extramitochondrial Ca^2+ concentrations in the presence or absence of the Ca^2+ uptake inhibitor of the endoplasmic reticulum, thapsigargin (Calbiochem). Agents examined in this assay include calcium channel inhibitors, pro- and anti-oxidants, mitochondrial inhibitors and uncouplers, and the Ca—UP inhibitor Ru360. On the day of the assay, solutions of the respiratory/cell permeabilizing media containing digitonin with thapsigarin (MM-TD) and without thapsigarin (MM-D) were prepared as previously described. Calcium chloride was added to each to a final concentration of 6 micromolar Ca^2+, resulting in MM-TD, 6 uM Ca and MM-D, 6 uM Ca. A MM solution was prepared with a 10× Ca^2+ concentration of 200 micromolar for the second Ca^2+ pulse. The Ca^2+-uniporter inhibitor Ru360 was prepared at a 10× concentration of 100 microliters in MM. Ten times (10×) stock solutions of the other agents were prepared for the assay by the addition of the compounds to final concentrations of 10 micromolar into MM. […] Controls include water and 10% DMSO (Sigma) in MM.
Cells of the HepG2 cell line (hepatocellular carcinoma, ATCC HB-8065) were trypsinized from near-confluent flasks in growth media (Eagle's MEM with non-essential amino acids, sodium pyruvate and Earle's BSS, 90%; FBS 10%). Cells were centrifuged, growth media was aspirated, and cells were resuspended to a concentration of 1×10^7 cells per milliliter in MM-TD, 6 uM Ca, or MM-D, 6 uM Ca. One hundred (100) microliters of the cell suspension (about 1×10^6 cells) were delivered to wells of a microtiter plate. The plate was placed in a FLIPR™ II (used in 96-well format) warmed to 37° C. An 11.1 microliter aliquot of the 10× stock solutions with water or DMSO (controls), Ru360 (Ca—UP inhibitor), or the test compounds, were dispensed into designated wells such that the assay concentration of DMSO is 0.1%, Ru360 is 10 micromolar, and each of the test compounds are at 1 micromolar concentrations. After an additional three minutes, a second addition of 12.3 microliters of the 10× CaCl2 (200 micromolar Ca^2+), was dispensed into the wells of the microtiter plate resulting in assay concentrations of 20 micromolar Ca^2 (Extramitochondrial Ca^2+ bound to the calcium indicator dye was monitored throughout and profiles of each assay; the results are presented in FIG. 12, with all thapsigargin minus (thaps−) assays in wells corresponding to columns 1-6 and thapsigargin plus (thaps+) assays in wells corresponding to columns 7-12.

Ca^2+ uniporter [2] = molecular target: T1, Ca^2+ uniporter; assay: Ca^2+ uniporter assay, digitonin-permeabilized suspended HepG2 cells, Calcium-Green-5N on FLIPR, ICMA added between two Ca^2+ pulses; assay type: cell-based; settings: 5 micrograms/milliliter oligomycin, 2 micromolar rotenone, 1 micromolar FCCP; for mitochondrial uptake of the second Ca^2+ pulse: second Ca^2+ pulse at about t=6 min, 1 micromolar RU360
Procedure: A master mix solution (MM Solution) was prepared by the addition of glutamate and malate to final concentrations of 5 millimolar each, MgCl2 to a final concentration of 1 millimolar, EGTA to a final concentrations of 0 to 8 micromolar, and Calcium-Green-5N to a final concentration of 0.1 to 1.0 micromolar, to a basic KCl-based respiratory media (“BReM”) that is described in Table 3. […] The hexapotassiun salt Calcium-Green-5N (Molecular Probes, Eugene, Oreg.) in the MM Solution is a fluorescent dye that has low binding affinity to Ca^2+.
Thapsigargin (Calbiochem, San Diego, Calif.), a Ca^2+ uptake inhibitor of the endoplasmic reticulum (ER), was added to the MM Solution to a final concentration of 1 micromolar to yield a solution designated “MM-T” (i.e., Master Mix with Thapsigargin).
The cell membrane permeabilizing agent digitonin (Sigma, St. Louis, Mo.) was added to MM-T to a final concentration of from about 0.007% to about 0.03% to yield a solution referred to as “MM-TD” (i.e., Master Mix with Thapsigargin and digitonin. CaCl2 was added to MM-T to provide a solution with a determined final concentration of Ca^2+ for the determination of intracellular Ca^2+ flux.
The effects of several intracellular Ca^2+ modulating agents (ICMAs) on permeabilized HepG2 cells were examined as follows. The mitochondrial respiratory inhibitors oligomycin (Calbiochem, San Diego, Calif.) and rotenone (Calbiochem) were added to MM-T to final concentrations of 50 micrograms/milliliter and 20 micromolar, respectively. The uncoupler FCCP was similarly added to MM-T to a 10× concentration (10 micromolar) to yield a stock solution of FCCP, MM-TF (i.e., Master Mix with Thapsigargin and FCCP). The ICMA Ru360, which blocks Ca^2+ uptake into the mitochondria by the calcium uniporter, was added to MM-T to a concentration of 100 micromolar to yield MM-T360 (i.e., Master Mix with Thapsigragin and Ru360). CaCl2 was added to MM-T to yield a 10× solution of CaCl2 (120 micromolar) in MM-T.
HepG2 cells were cultured in Eagle's minimal essential medium (MEM) with non-essential amino acids, sodium pyruvate and Earle's balanced salt solution (BSS), 90%; fetal bovine serum (FBS), 10%. Cells were centrifuged (500×g) and the growth media was aspirated from the pellet. The HepG2 cells were resuspended in MM-TD at a concentration of 1×10^7 cells/milliliter, and 100 microliters of the resuspended permeabilized cells were dispensed into wells of a 96-well Costar 3603 microplate. The plate was placed into a FLIPR™ prewarmed to 37° C. MM-T, 120 micromolar Ca^2+, was dispensed into the cell-containing wells at a volume of 11.1 microliters, yielding a final assay concentration of 12 micromolar Ca^2+. The addition of Ca^2+ at this stage of the assay is referred to as the first calcium pulse and the time at which Ca^2+ is added is designated t=0.
After about three minutes (i.e., at about t=3 min.), 12.3 microliters of one of the ICMA solutions were dispensed into wells containing permeabilized cells to yield final assay concentrations of 5 micrograms/milliliter oligomycin, 2 micromolar rotenone, 1 micromolar FCCP, 1 micromolar RU360, and MM-T (no ICMA).
Cells were exposed to a second calcium pulse by the addition of 13.7 microliters of MM-T, 120 micromolar Ca^2+, to the cells after an additional 3 minutes (i.e., at about t=6 min.).

[3] = test system: mitochondria permeability transition (MPT); assay: MPT modulation assay, digitonin-permeabilized MixCon cells, Ca-Green-5N, cuvette spectrofluorimeter; assay type: cell-based
Procedure: An assay was performed in order to observe the transition induction effect on MPT by the MPT effector, diamide (a thiol oxidizing agent and pro-oxidant). The assay was performed in a digitonin-permeabilized cell line of mixed cybrids, MixCon in the presence of Ca^2+ and Ca-Green-5N and monitored in an LS50B Perkin Elmer Spectrofluorimeter, but is adaptable to the FLIPR system. Initially, ethacrynic acid was added to the MixCon cells in Dulbecco's modified Eagle's medium and 10% FBS, to a final concentration of 100 micromolar and preincubated for 5 minutes to remove the ability of cells to deal with oxidative stress making cells susceptible to the pro-oxidant. The cells were then centrifuged, growth media was aspirated, and cells resuspended, at 1.1×10^7 cells/milliliter, in 2 milliliters of respiratory media containing digitonin (MM-D) whereupon the digitonin (dig) permeabilizes the cells. The suspension was then transferred to a spectrofluorimetric cuvette. The cuvette was placed in the fluorimeter and 0.3 microliters of a 254 millimolar CaCl2 stock was added to the cuvette (final CaCl2 concentration of 40 micromolar). After approximately three minutes diamide was added to the cuvette to a final concentration of 500 micromolar].

[4] = test system: mitochondria permeability transition (MPT); assay: MPT modulation assay, digitonin-permeabilized 293T cells, cuvette spectrofluorimeter; assay type: cell-based, human; settings: FCCP 0.1 micromolar after 500 micromolar diamide
Procedure: The transition induction effect on MPT by the MPT effector, diamide (a thiol oxidizing agent and pro-oxidant) were performed with a second cell line, 293T. The 293T cells were suspended in 2 milliliters of growth media, DMEN and 10% FBS, with 100 micromolar of ethacrynic acid (1×10^7 cells/ml) and preincubated for 14 minutes to remove ability of cells to deal with oxidative stress making them susceptible to the pro-oxidant. The cells were centrifuged, media aspirated, resuspended in 2 milliliters of respiratory media containing digitonin (MM-D), and transferred into a cuvette. The digitonin (dig) in MM-TD permeabilizes the cells. The cuvette was placed in a LS50B Perkin Elmer Spectrofluorimeter and 40 micromolar CaCl2 in H2O was added into the suspension. After approximately three minutes 500 micromolar diamide was dispensed into the cuvette.

Ca^2+ uniporter [5] = test system: Ca^2+ uniporter
Procedure: On the day of the assay a master mix solution (MM) was prepared by the addition of glutamate and malate from the stock solutions to final concentrations of 5 millimolar each, 1 millimolar MgCl2, and 0.5 micromolar Calcium-Green-5N (Molecular Probes, Eugene, Oreg.). The hexapotassium salt Calcium-Green-5N (Molecular Probes, Eugene, Oreg.) in the MM is a fluorescent dye that has low binding affinity to Ca^2+. The cell membrane permeabilizing agent digitonin (Sigma, St. Louis, Mo.) was added to MM to a final concentration of 0.007% to yield a solution designated MM-D. To this mixture CaCl2 was added to a final concentration of 6 micromolar Ca^2+ to yield a solution designated MM-D, 6 uM Ca. A 10× Ca^2+ stock solution was prepared by addition of CaCl2 to a final concentration of 200 micromolar in MM (no digitonin), and 10× solutions of FCCP were also prepared in MM to give concentrations of 0, 0.2, 0.4, 0.6, 0.8, 1.0, 2.0, 5.0, and 10.0 micromolar.
HepG2 cells (human hepatocellular carcinoma, ATCC HB-8065) were trypsinized from near-confluent flasks in growth media, Eagle's minimum essential medium (MEM) with non-essential amino acids, sodium pyruvate and Earle's balanced salt solution (BSS), 90%; FBS 10%. Cells were centrifuged, growth media aspirated, and resuspended in the permeabilizing solution MM-D, 6 uM CaCl2. The concentration of cells was adjusted to 1×10^7 cells per milliliter in solution. One hundred (100) microliters of the cell suspension (1×10^6 cells) were delivered to the 96 well microtiter plate. […]
A pulse of 12.3 microliters of the 10× stock CaCl2 solution was introduced into each of the wells of the microtiter plates after about four minutes. Emissions resulting from the binding of extramitochondrial Ca^2+ to the calcium indicator dye were monitored throughout the assay. […]
The average of the changes of fluorescence for the assays (1-12) versus time course where FCCP was added at one minute, and calcium was pulsed into the assay media at approximately 4 minutes, were determined and graphed as a function of time (FIG. 11).

[6] = test system: mitochondria permeability transition (MPT); assay: High-throughput MPT modulation assay, permeabilized HepG2 cells with and without thapsigargin, FLIPR 384; assay type: cell-based, human; settings: compounds 1 micromolar
Procedure: HepG2 cells (hepatocellular carcinoma, ATCC HB-8065), in suspension, were used to determine the effect of these compounds on mitochondria Ca^2+ sequestration by monitoring extramitochondrial Ca^2+ concentrations in the presence or absence of the Ca^2+ uptake inhibitor of the endoplasmic reticulum, thapsigargin (Calbiochem, San Diego, Calif.). On the day of the assay solutions of the respiratory media containing digitonin with thapsigarin (MM-TD) and without thapsigarin (MM-D) were prepared as previously described. Calcium chloride was added to each to a final concentration of 6 micromolar Ca^2+, to yield MM-TD, 6 uM Ca, and MM-D, 6 uM Ca. Ten times (10×) stock solutions were prepared for the assay by the addition of each of the compounds to final concentrations of 10 micromolar in MM. Ten times (10×) solutions of CaCl2 was prepared in MM or MM-T to concentrations of 200 micromolar, for the second addition.
The HepG2 cells were trypsinized from near-confluent flasks in growth media (Eagle's MEM with non-essential amino acids, sodium pyruvate and Earle's BSS, 90%; FBS 10%). Cells were centrifuged, media was aspirated, and the cells were resuspended to 1×10^7 cells per milliliter in MM-TD, 6 uM Ca and MM-D, 6 uM Ca, whereby Ca^2+ and the indicator dye enter the cells and Ca^2+ becomes sequestered in mitochondria. One hundred (100) microliters of the cell suspension was delivered to each well of a microtiter plate. The plate was placed in the FLIPR 384 warmed to 37° C. An 11.1 microliter volume of the 10× stock solutions with the test compounds were dispensed into designated wells such that the assay concentration are 1 micromolar. After a three minute interval, a Ca^2+ pulse of 20 micromolar was delivered by adding 12.3 microliters of the 10× CaCl2 solutions containing 200 micromolar Ca^2+.

Compound: N#CC(C#N)=NNc1cccc(Cl)c1 [CCCP, carbonyl cyanide m-chlorophenyl-hydrazone]
- fluorescence signal over the 3 minutes after compound addition (retention of the accumulated 6 micromolar Ca^2+) (Ca^2+ uniporter [1]; test compounds 1 micromolar): release Ca^2+ from mitochondria
- uniporter activity profile after the 20 micromolar Ca^2+ pulse (Ca^2+ uniporter [1]; test compounds 1 micromolar): prevent Ca^2+ uptake and retention by the mitochondria

Compound: N#CC(C#N)=NNc1ccc(OC(F)(F)F)cc1 [FCCP, carbonyl cyanide p-(trifluoromethoxy)phenyl-hydrazone]
- release of sequestered Ca^2+ from mitochondria after addition of the agent (Ca^2+ uniporter [2]; added about 3 min after first 12 micromolar Ca^2+ pulse, thapsigargin present): caused the release of Ca^2+ from mitochondria into the cytosol
- mitochondrial uptake of the second Ca^2+ pulse (Ca^2+ uniporter [2]): could not sequester the added Ca^2+
- further Ca^2+ release on addition of uncoupler after diamide ([3]; FCCP 0.1 micromolar after 500 micromolar diamide, no CsA): no further release of Ca^2+ from the mitochondria
- Ca^2+ release on addition of uncoupler in the presence of CsA and diamide ([3]; FCCP after diamide with 10 micromolar CsA): Ca^2+ released from the mitochondria
- further Ca^2+ release on addition of uncoupler after diamide [4]: no increased level of fluorescence
- effect on CaUP activity at the lowest concentrations (Ca^2+ uniporter [5]; 0.02 or 0.04 uM FCCP, FCCP at 1 min, Ca^2+ pulse at about 4 min, FIG. 10): difficult to distinguish from the results obtained when no FCCP was present
- fluorescence upon addition of the agent, before the Ca^2+ pulse (Ca^2+ uniporter [5]; FCCP added at t=1 min to cells loaded with 6 micromolar Ca^2+, FIG. 11): fluorescence rises slightly
- effect of the uncoupler on CaUP activity with decreasing concentration (Ca^2+ uniporter [5]; FCCP from 1.0 uM to 0.02 uM, FIG. 10): decreases in a corresponding manner

Compound: CC(=O)N[C@@H](CS)C(=O)O [N-acetylcysteine]
- uniporter activity profile after the 20 micromolar Ca^2+ pulse (Ca^2+ uniporter [1]; test compounds 1 micromolar): uniporter non-inhibitory profile

Compound: CCC(C)N(C)C(=O)c1cc2ccccc2c(-c2ccccc2Cl)n1 (stereo not shown) [PK-11195]
- uniporter activity profile after the 20 micromolar Ca^2+ pulse (Ca^2+ uniporter [1]; test compounds 1 micromolar): uniporter non-inhibitory profile

Compound: N=C(N)NC(=O)c1nc(Cl)c(N)nc1N [amiloride]
- uniporter activity profile after the 20 micromolar Ca^2+ pulse (Ca^2+ uniporter [1]; test compounds 1 micromolar): do not possess uniporter inhibitory activity

Compound: C=C1[C@@H]2CC[C@H]3[C@]4(C)C[C@H](O[C@@H]5O[C@H](CO)[C@@H](OS(=O)(=O)O)[C@H](OS(=O)(=O)O)[C@H]5OC(=O)CC(C)C)C[C@@H](C(=O)O)[C@H]4CC[C@]3(C2)[C@H]1O [atractyloside]
- fluorescence signal over the 3 minutes after compound addition (retention of the accumulated 6 micromolar Ca^2+) (Ca^2+ uniporter [1]; test compounds 1 micromolar): slight indication of Ca^2+ release
- assay profile after the 20 micromolar Ca^2+ pulse [6]: initial uptake of Ca^2+ into mitochondria with the slow release of the Ca^2+ into the cytosol

Compound: CO[C@H](C/C=C\C=C\CC/C=C/C[C@H](C)/C=C/C(=C\C(=O)O)CC(=O)O)/C(C)=C\C=C(/C)C(=O)O [bongkrekic acid]
- assay profile after the 20 micromolar Ca^2+ pulse [6]: normal mitochondria sequestration of Ca^2+

Compound: CN(CC(=O)O)C(=N)N [creatine]
- uniporter activity profile after the 20 micromolar Ca^2+ pulse (Ca^2+ uniporter [1]; test compounds 1 micromolar): uniporter non-inhibitory profile

Compound: O=C1CN(/N=C/c2ccc(-c3ccc([N+](=O)[O-])cc3)o2)C(O)=N1 [dantrolene]
- uniporter activity profile after the 20 micromolar Ca^2+ pulse (Ca^2+ uniporter [1]; test compounds 1 micromolar): uniporter non-inhibitory profile

Compound: COc1ccc([C@@H]2Sc3ccccc3N(CCN(C)C)C(=O)[C@@H]2OC(C)=O)cc1 [diltiazem]
- uniporter activity profile after the 20 micromolar Ca^2+ pulse (Ca^2+ uniporter [1]; test compounds 1 micromolar): do not possess uniporter inhibitory activity

Compound: COc1ccc(Cl)cc1C(=O)NCCc1ccc(S(=O)(=O)NC(=O)NC2CCCCC2)cc1 [glyburide]
- uniporter activity profile after the 20 micromolar Ca^2+ pulse (Ca^2+ uniporter [1]; test compounds 1 micromolar): uniporter non-inhibitory profile

Compound: C[C@H](CCC(=O)O)C[C@H](C)C[C@H](C)C(=O)/C=C(\O)[C@H](C)C[C@H](C)C/C=C/[C@@H](C)[C@@H](O)[C@@H](C)[C@@H](O)C[C@@H]1CC[C@@](C)([C@H]2CC[C@@](C)([C@@H](C)O)O2)O1 [ionomycin]
- fluorescence signal over the 3 minutes after compound addition (retention of the accumulated 6 micromolar Ca^2+) (Ca^2+ uniporter [1]; test compounds 1 micromolar): release Ca^2+ from cell stores
- uniporter activity profile after the 20 micromolar Ca^2+ pulse (Ca^2+ uniporter [1]; test compounds 1 micromolar): prevent Ca^2+ uptake and retention by the mitochondria

Compound: CN1CCN(CCCN2c3ccccc3Sc3ccc(C(F)(F)F)cc32)CC1 [trifluoroperazine]
- uniporter activity profile after the 20 micromolar Ca^2+ pulse (Ca^2+ uniporter [1]; test compounds 1 micromolar): do not possess uniporter inhibitory activity

Compound: Ru360
- mitochondrial uptake of the second Ca^2+ pulse (Ca^2+ uniporter [2]): prevented the uptake of Ca^2+ by the Ca Uniporter
- uniporter activity profile after the 20 micromolar Ca^2+ pulse (Ca^2+ uniporter [1]; Ru360 10 micromolar): no uptake of Ca^2+ by the uniporter
